Data as given in PubChem BioAssay AID264 (DTP/NCI, 2004).
Values joined by “and” are separate entries in the source; they are usually repeats but may differ in a detail not shown here. Identical values can stand only once. Results filed as inconclusive are left out.

Tested on: nude mice, LX-1 lung xenograft intrarenal, tumor weight T/C
Experiment: NCI In Vivo Anticancer Drug Screen. Data for tumor model Human Lung LX-1 Xenograft (intrarenal inoculation) in NU/NU Swiss (nude) mice
Details: endpoint: mean tumor weight change, higher = larger tumour
Summary of the method: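 Antitumor effect is expressed as a ratio: the mean tumor measurement of the drug-treated group relative to that of the vehicle-dosed control group.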

[1] = dose: 150.0 mg/kg/injection, schedule: Q04DX003 (sc), vehicle: suspension in saline
[2] = dose: 300.0 mg/kg/injection, schedule: Q04DX003 (sc), vehicle: suspension in saline
[3] = dose: 600.0 mg/kg/injection, schedule: Q04DX003 (sc), vehicle: suspension in saline
[4] = dose: 1200.0 mg/kg/injection, schedule: Q04DX003 (sc), vehicle: suspension in saline
[5] = dose: 200.0 mg/kg/injection, schedule: Q04DX003 (sc), vehicle: suspension in saline
[6] = dose: 800.0 mg/kg/injection, schedule: Q01DX010 (sc), vehicle: saline with Tween-80
[7] = dose: 100.0 mg/kg/injection, schedule: Q01DX010 (sc), vehicle: Klucel (hydroxypropylcellulose) (HPC)
[8] = dose: 300.0 mg/kg/injection, schedule: Q04DX003 (sc), vehicle: Klucel (hydroxypropylcellulose) (HPC)
[9] = dose: 600.0 mg/kg/injection, schedule: Q04DX003 (sc), vehicle: Klucel (hydroxypropylcellulose) (HPC)
[10] = dose: 1200.0 mg/kg/injection, schedule: Q04DX003 (sc), vehicle: Klucel (hydroxypropylcellulose) (HPC)
[11] = dose: 150.0 mg/kg/injection, schedule: Q04DX003 (sc), vehicle: Klucel (hydroxypropylcellulose) (HPC)
[12] = dose: 100.0 mg/kg/injection, schedule: Q01DX010 (sc), vehicle: saline with Tween-80
[13] = dose: 200.0 mg/kg/injection, schedule: Q01DX010 (sc), vehicle: saline with Tween-80
[14] = dose: 400.0 mg/kg/injection, schedule: Q01DX010 (sc), vehicle: saline with Tween-80
[15] = dose: 25.0 mg/kg/injection, schedule: Q01DX010 (sc), vehicle: saline with Tween-80
[16] = dose: 100.0 mg/kg/injection, schedule: Q04DX003 (sc), vehicle: Klucel (hydroxypropylcellulose) (HPC)
[17] = dose: 200.0 mg/kg/injection, schedule: Q04DX003 (sc), vehicle: Klucel (hydroxypropylcellulose) (HPC)
[18] = dose: 400.0 mg/kg/injection, schedule: Q04DX003 (sc), vehicle: Klucel (hydroxypropylcellulose) (HPC)
[19] = dose: 200.0 mg/kg/injection, schedule: Q04DX003 (sc), vehicle: saline with Tween-80
[20] = dose: 800.0 mg/kg/injection, schedule: Q04DX003 (sc), vehicle: saline with Tween-80
[21] = dose: 50.0 mg/kg/injection, schedule: Q01DX010 (sc), vehicle: saline with Tween-80

SMILES: CO[C@@H]1[C@H](O)CC[C@]2(CO2)[C@H]1[C@@]1(C)O[C@@H]1CC=C(C)C
- T/C [1]: 79 % of control
- T/C [2]: 90 % of control
- T/C [3]: 63 % of control
- T/C [4]: 63 % of control

SMILES: CCc1ncnc2cc(OCC3CO3)c(OC)cc12 (centres undefined)
- T/C (dose: 25.0 mg/kg/injection, schedule: Q04DX003 (sc), vehicle: suspension in saline): 53 % of control
- T/C (dose: 50.0 mg/kg/injection, schedule: Q04DX003 (sc), vehicle: suspension in saline): 64 % of control
- T/C [5]: 24 % of control

SMILES: COC(=O)Nc1ccc(Cc2ccc(NC(=O)OC)cc2)cc1
- T/C [6]: 68 % of control

SMILES: O=c1ssc(=Nc2ccccc2)n1-c1ccccc1
- T/C [7]: 77 % of control
- T/C (dose: 400.0 mg/kg/injection, schedule: Q01DX010 (sc), vehicle: Klucel (hydroxypropylcellulose) (HPC)): 97 % of control

SMILES: Nc1ncn(C2OC(CO)C(O)C2O)c(=O)n1 (centres undefined)
- T/C (dose: 0.19 mg/kg/injection, schedule: Q01DX010 (sc), vehicle: saline): 164 % of control
- T/C (dose: 0.75 mg/kg/injection, schedule: Q01DX010 (sc), vehicle: saline): 40 % of control
- T/C (dose: 10.0 mg/kg/injection, schedule: Q04DX003 (sc), vehicle: saline): 101 % of control
- T/C (dose: 20.0 mg/kg/injection, schedule: Q04DX003 (sc), vehicle: saline): 52 % of control
- T/C (dose: 100.0 mg/kg/injection, schedule: Q04DX003 (sc), vehicle: saline): 86 % of control
- T/C (dose: 200.0 mg/kg/injection, schedule: Q04DX003 (sc), vehicle: saline): 64 % of control
- T/C [5]: 45 % of control
- T/C (dose: 400.0 mg/kg/injection, schedule: Q04DX003 (sc), vehicle: saline): 35 % of control
- T/C (dose: 800.0 mg/kg/injection, schedule: Q04DX003 (sc), vehicle: saline): 16 % of control
- T/C (dose: 800.0 mg/kg/injection, schedule: Q04DX003 (sc), vehicle: suspension in saline): 19 % of control and 28 % of control
- T/C (dose: 1228.8 mg/kg/injection, schedule: Q04DX003 (sc), vehicle: suspension in saline): -72 % of control
- T/C (dose: 1600.0 mg/kg/injection, schedule: Q04DX003 (sc), vehicle: suspension in saline): 12 % of control and 14 % of control
- T/C (dose: 1920.0 mg/kg/injection, schedule: Q04DX003 (sc), vehicle: suspension in saline): -100 % of control
- T/C (dose: 2400.0 mg/kg/injection, schedule: Q04DX003 (sc), vehicle: suspension in saline): -100 % of control

SMILES: O=NN(CCCl)C(=O)Oc1cc(Cl)c(Cl)cc1Cl
- T/C [8]: 104 % of control
- T/C [9]: 53 % of control
- T/C [10]: 29 % of control

SMILES: [I][Hg][CH2]C1OCCOC1[CH2][Hg][I] (centres undefined)
- T/C [11]: 88 % of control
- T/C [8]: 74 % of control
- T/C [9]: 79 % of control
- T/C [10]: 64 % of control

SMILES: CCN(Cc1ccc(Cl)c(Cl)c1)c1ccc2nc(N)nc(N)c2c1C
- T/C (dose: 37.5 mg/kg/injection, schedule: Q04DX003 (sc), vehicle: water): 62 % of control

SMILES: Nc1cc(Cl)c2[nH]cnc2n1
- T/C (dose: 200.0 mg/kg/injection, schedule: Q04DX003 (sc), vehicle: water): 121 % of control
- T/C (dose: 400.0 mg/kg/injection, schedule: Q04DX003 (sc), vehicle: water): 94 % of control

SMILES: CC1C=NNC1=O (centres undefined)
- T/C [12]: 97 % of control
- T/C [13]: 270 % of control
- T/C [14]: 82 % of control

SMILES: Cc1cc2c(c3oc(C4(C)OC4C4OC4C)cc(=O)c13)C(=O)c1c(O)c(C3CC(C)(N(C)C)C(O)C(C)O3)cc(C3CC(N(C)C)C(O)C(C)O3)c1C2=O (centres undefined)
- T/C (dose: 0.03 mg/kg/injection, schedule: Q01DX010 (sc), vehicle: saline): 57 % of control
- T/C (dose: 0.06 mg/kg/injection, schedule: Q01DX010 (sc), vehicle: saline): 66 % of control

SMILES: CC1(CO)C(O)CCC2(C)C1CCC1CC3CC12CCC3(O)CO (centres undefined)
- T/C (dose: 6.25 mg/kg/injection, schedule: Q01DX010 (sc), vehicle: saline with Tween-80): 181 % of control
- T/C (dose: 12.5 mg/kg/injection, schedule: Q01DX010 (sc), vehicle: saline with Tween-80): 58 % of control
- T/C [15]: 78 % of control
- T/C (dose: 600.0 mg/kg/injection, schedule: Q01DX010 (sc), vehicle: saline with Tween-80): 67 % of control

SMILES: O=Cc1ccccc1
- T/C [16]: 64 % of control
- T/C [17]: 75 % of control
- T/C [18]: 73 % of control
- T/C (dose: 800.0 mg/kg/injection, schedule: Q04DX003 (sc), vehicle: Klucel (hydroxypropylcellulose) (HPC)): 112 % of control

SMILES: N=C(N)SCc1cccc2c(=O)cc(-c3ccccc3)oc12
- T/C [2]: 51 % of control
- T/C [3]: 39 % of control
- T/C [4]: 63 % of control

SMILES: Cc1ccc(N)c(N)c1
- T/C [19]: 57 % of control
- T/C (dose: 400.0 mg/kg/injection, schedule: Q04DX003 (sc), vehicle: saline with Tween-80): 74 % of control
- T/C [20]: 57 % of control

SMILES: CC1(C)N=C(N)N=C(N)N1c1ccc(CCCCc2ccc(S(=O)(=O)F)cc2Cl)c(Cl)c1
- T/C (dose: 12.5 mg/kg/injection, schedule: Q01DX010 (sc), vehicle: saline): 78 % of control

SMILES: Cc1cc(Nc2ccc3c(c2)OCO3)c2cc3c(cc2n1)OCO3
- T/C [11]: 113 % of control
- T/C [8]: 155 % of control
- T/C [10]: 123 % of control

SMILES: Cc1cn(C2CC(F)C(CO)O2)c(=O)[nH]c1=O (centres undefined)
- T/C [1]: 54 % of control
- T/C [2]: 85 % of control
- T/C [3]: 56 % of control
- T/C [4]: 37 % of control

SMILES: O=C(O)/C=C/C(=O)Nc1ccc(Cl)c(Cl)c1
- T/C [16]: 95 % of control
- T/C [17]: 91 % of control

SMILES: CCCCc1ccc(-n2c(C)c(COC(=O)NC)c(COC(=O)NC)c2C)cc1
- T/C (dose: 12.5 mg/kg/injection, schedule: Q01DX010 (sc), vehicle: Klucel (hydroxypropylcellulose) (HPC)): 111 % of control
- T/C (dose: 25.0 mg/kg/injection, schedule: Q01DX010 (sc), vehicle: Klucel (hydroxypropylcellulose) (HPC)): 92 % of control
- T/C (dose: 50.0 mg/kg/injection, schedule: Q01DX010 (sc), vehicle: Klucel (hydroxypropylcellulose) (HPC)): 100 % of control
- T/C [7]: 104 % of control

SMILES: CC(=O)Nc1ccc(C(=O)C=O)cc1
- T/C [15]: 69 % of control
- T/C [21]: 103 % of control
- T/C [12]: 35 % of control
- T/C [13]: 45 % of control

SMILES: Cc1ncc([N+](=O)[O-])n1CCSC(N)=O
- T/C [21]: 90 % of control

SMILES: c1ccc([C@H]2CN3CCSC3=N2)cc1
- T/C (dose: 30.0 mg/kg/injection, schedule: Q04DX003 (sc), vehicle: saline): 103 % of control
- T/C (dose: 60.0 mg/kg/injection, schedule: Q04DX003 (sc), vehicle: saline): 121 % of control

SMILES: COc1cc2c(cc1O)N=C[C@@H]1CCC(O)N1C2=O (mixture of isomers)
- T/C (dose: 4.0 mg/kg/injection, schedule: Q01DX010 (sc), vehicle: saline): 213 % of control

SMILES: Cc1nn(CCO)c(C)c1N=[N+]([O-])c1c(C)nn(CCO)c1C
- T/C [11]: 99 % of control
- T/C [8]: 105 % of control
- T/C [9]: 121 % of control
- T/C [10]: 103 % of control

SMILES: O=[N+]([O-])c1ccc(-n2[nH]nnc2=S)cc1
- T/C (dose: 50.0 mg/kg/injection, schedule: Q04DX003 (sc), vehicle: Klucel (hydroxypropylcellulose) (HPC)): 92 % of control
- T/C [16]: 84 % of control
- T/C [17]: 95 % of control
- T/C [18]: 59 % of control

SMILES: CC1(c2ccc(Cl)cc2)OC(=O)C(=Cc2ccc([N+](=O)[O-])s2)C(=O)O1 (centres undefined)
- T/C [19]: 111 % of control
- T/C [20]: 80 % of control
- T/C (dose: 1600.0 mg/kg/injection, schedule: Q04DX003 (sc), vehicle: saline with Tween-80): 118 % of control

SMILES: CS(=O)(=O)c1ncc(Br)cn1
- T/C (dose: 75.0 mg/kg/injection, schedule: Q04DX003 (sc), vehicle: saline with Tween-80): 100 % of control
- T/C (dose: 150.0 mg/kg/injection, schedule: Q04DX003 (sc), vehicle: saline with Tween-80): 57 % of control
- T/C (dose: 300.0 mg/kg/injection, schedule: Q04DX003 (sc), vehicle: saline with Tween-80): 84 % of control

SMILES: Oc1ccc(SCc2ccc(NCc3ccccc3)cc2)cc1
- T/C [15]: 97 % of control
- T/C [21]: 44 % of control
- T/C [12]: 53 % of control
- T/C [14]: 190 % of control
- T/C [6]: 54 % of control
